Measured values from patent publication US8309577B2, “Quinuclidine compounds as α-7 nicotinic acetylcholine receptor ligands” (Bristol-Myers Squibb Company, priority 2008, dated 2012).

Target: T1, α-7 nicotinic acetylcholine receptor channel expressed in HEK 293 cells (Rattus norvegicus, UniProt Q05941)
T1 construct: expressed in transfected cells
Assay: Ca2+-sensitive fluorescence-based FLIPR assay, α7 nicotinic ACh receptor channel function (agonist)
Format: cell-based
Conditions: Table 1, HEK 293 cells, agonist Ca2+ flux
Procedure, shortened: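 Potency and efficacy derived from kinetic FLIPR Ca²⁺-flux fluorescence, recorded 3 min after compound addition in Hanks buffer following a 10 s baseline.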

[1] = FLIPR α7 activity rating (EC50, nM)

T1 sequence (Q05941 23-502): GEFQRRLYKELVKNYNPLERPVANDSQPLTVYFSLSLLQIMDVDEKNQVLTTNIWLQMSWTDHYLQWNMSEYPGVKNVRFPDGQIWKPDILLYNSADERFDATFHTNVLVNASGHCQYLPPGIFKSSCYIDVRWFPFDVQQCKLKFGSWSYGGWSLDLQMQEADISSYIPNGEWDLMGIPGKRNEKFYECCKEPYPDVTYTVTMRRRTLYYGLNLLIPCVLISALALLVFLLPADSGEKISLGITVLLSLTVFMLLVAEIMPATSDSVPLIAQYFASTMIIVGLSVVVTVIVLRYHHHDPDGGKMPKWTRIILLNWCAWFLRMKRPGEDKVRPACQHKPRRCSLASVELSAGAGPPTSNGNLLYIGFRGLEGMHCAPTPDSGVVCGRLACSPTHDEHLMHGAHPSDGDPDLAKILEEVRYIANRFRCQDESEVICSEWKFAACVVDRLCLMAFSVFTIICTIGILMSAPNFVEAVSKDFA

**Q.** Which EC50 [1] does the source give for `Cc1cnc(NC2=NC[C@@]3(CN4CCC3CC4)O2)c(C)n1` [Example 186] here?
**A.** 100 to 1000 nM

**Q.** With `Cc1nc(NC2=NC[C@@]3(CN4CCC3CC4)O2)sc1C` [Example 187] as the molecule, how does the EC50 (FLIPR α7 (EC50, nM)) read?
**A.** 424 nM

**Q.** What about the EC50 [1] of the same molecule?
**A.** 100 to 1000 nM

**Q.** `c1ccc(-c2n[nH]c(NC3=NC[C@@]4(CN5CCC4CC5)O3)n2)cc1` [Example 188] was tested. Which EC50 [1] did it give?
**A.** 1000 to 100000 nM

**Q.** `Cc1nc(NC2=NC[C@@]3(CN4CCC3CC4)O2)sc1-c1ccccc1` [Example 189] was tested. Which EC50 [1] did it give?
**A.** 100 to 1000 nM

**Q.** For `Cn1ccc(NC2=NC[C@@]3(CN4CCC3CC4)O2)n1` [Example 190], which EC50 [1] is on record?
**A.** 1000 to 100000 nM

**Q.** Which EC50 [1] does the source give for `Cc1cnc(NC2=NC[C@@]3(CN4CCC3CC4)O2)nc1-c1ccccc1` [Example 191] here?
**A.** < 100 nM

**Q.** With `c1ccc(-c2ccnc(NC3=NC[C@@]4(CN5CCC4CC5)O3)n2)nc1` [Example 192] as the molecule, how does the EC50 [1] read?
**A.** 100 to 1000 nM

**Q.** Which results are given for `Brc1cnc(NC2=NC[C@@]3(CN4CCC3CC4)O2)nc1-c1ccccc1` [Example 193]?
**A.** EC50 (FLIPR α7 (EC50, nM)): 17 nM; EC50 [1]: < 100 nM

**Q.** Which EC50 (FLIPR α7 (EC50, nM)) does the source give for `c1cncc(-c2ccnc(NC3=NC[C@@]4(CN5CCC4CC5)O3)n2)c1` [Example 194] here?
**A.** 18 nM

**Q.** And the EC50 [1]?
**A.** < 100 nM

**Q.** `c1ccc(-c2nc(NC3=NC[C@@]4(CN5CCC4CC5)O3)ncc2-n2cncn2)cc1` [Example 195] was tested. Which EC50 [1] did it give?
**A.** 1000 to 100000 nM

**Q.** How did the EC50 (FLIPR α7 (EC50, nM)) turn out when `c1ccc2c(c1)OCc1cnc(NC3=NC[C@@]4(CN5CCC4CC5)O3)nc1-2` [Example 196] was run?
**A.** 13 nM

**Q.** And the EC50 [1]?
**A.** < 100 nM

**Q.** `Fc1ccc(NC2=NC[C@@]3(CN4CCC3CC4)O2)nc1` [Example 197] was tested. Which EC50 [1] did it give?
**A.** < 100 nM

**Q.** Which EC50 (FLIPR α7 (EC50, nM)) does the source give for `Brc1ccc(NC2=NC[C@@]3(CN4CCC3CC4)O2)nc1` [Example 198] here?
**A.** 15 nM

**Q.** What about the EC50 [1] of the same molecule?
**A.** < 100 nM

**Q.** With `COc1cc(NC2=NC[C@@]3(CN4CCC3CC4)O2)ccn1` [Example 199] as the molecule, how does the EC50 [1] read?
**A.** 1000 to 100000 nM

**Q.** How did the EC50 [1] turn out when `Fc1ccc2nc(NC3=NC[C@@]4(CN5CCC4CC5)O3)sc2c1` [Example 200] was run?
**A.** < 100 nM

**Q.** `c1nc(NC2=NC[C@@]3(CN4CCC3CC4)O2)nc2c1CCCC2` [Example 201] was tested. Which EC50 [1] did it give?
**A.** < 100 nM

**Q.** `c1nc(NC2=NC[C@@]3(CN4CCC3CC4)O2)nc2c1CCC2` [Example 202] was tested. Which EC50 (FLIPR α7 (EC50, nM)) did it give?
**A.** 16 nM

**Q.** What about the EC50 [1] of the same molecule?
**A.** < 100 nM

**Q.** With `Cc1nc(NC2=NC[C@@]3(CN4CCC3CC4)O2)nc(Cl)c1C` [Example 203] as the molecule, how does the EC50 [1] read?
**A.** < 100 nM

**Q.** Which EC50 [1] does the source give for `O=C1CCCc2nc(NC3=NC[C@@]4(CN5CCC4CC5)O3)ncc21` [Example 204] here?
**A.** 100 to 1000 nM

**Q.** With `N#Cc1ccnc(NC2=NC[C@@]3(CN4CCC3CC4)O2)c1` [Example 205] as the molecule, how does the EC50 [1] read?
**A.** 100 to 1000 nM

**Q.** For `FC(F)(F)c1cccc2c(NC3=NC[C@@]4(CN5CCC4CC5)O3)n[nH]c12` [Example 206], which EC50 [1] is on record?
**A.** 1000 to 100000 nM

**Q.** `c1ccc(-c2ccc(NC3=NC[C@@]4(CN5CCC4CC5)O3)nc2)cc1` [Example 207] was tested. Which EC50 [1] did it give?
**A.** 100 to 1000 nM

**Q.** `COc1ccc2c(c1)nc(NC1=NC[C@@]3(CN4CCC3CC4)O1)n2C` [Example 208] was tested. Which EC50 [1] did it give?
**A.** 1000 to 100000 nM

**Q.** `c1cc(C2CC2)nc(NC2=NC[C@@]3(CN4CCC3CC4)O2)n1` [Example 209] was tested. Which EC50 [1] did it give?
**A.** < 100 nM

**Q.** With `Brc1cnc(NC2=NC[C@@]3(CN4CCC3CC4)O2)nc1C1CC1` [Example 210] as the molecule, how does the EC50 (FLIPR α7 (EC50, nM)) read?
**A.** 9 nM

**Q.** What about the EC50 [1] of the same molecule?
**A.** < 100 nM

**Q.** How did the EC50 [1] turn out when `COc1ccc2c(NC3=NC[C@@]4(CN5CCC4CC5)O3)nn(C)c2c1` [Example 211] was run?
**A.** 100 to 1000 nM

**Q.** For `COc1ccc2c(c1)c(NC1=NC[C@@]3(CN4CCC3CC4)O1)nn2C` [Example 212], which EC50 [1] is on record?
**A.** 1000 to 100000 nM

**Q.** `Clc1cnc(NC2=NC[C@@]3(CN4CCC3CC4)O2)nc1` [Example 213] was tested. Which EC50 (FLIPR α7 (EC50, nM)) did it give?
**A.** 9 nM

**Q.** What about the EC50 [1] of the same molecule?
**A.** < 100 nM

**Q.** Which EC50 [1] does the source give for `Clc1ccc(NC2=NC[C@@]3(CN4CCC3CC4)O2)nc1` [Example 214] here?
**A.** < 100 nM

**Q.** For `Clc1ccnc(NC2=NC[C@@]3(CN4CCC3CC4)O2)c1` [Example 215], which EC50 [1] is on record?
**A.** < 100 nM

**Q.** How did the EC50 [1] turn out when `CC(C)Oc1cnc(NC2=NC[C@@]3(CN4CCC3CC4)O2)cn1` [Example 216] was run?
**A.** 1000 to 100000 nM

**Q.** Which EC50 [1] does the source give for `CN1CCCC1c1ccc(NC2=NC[C@@]3(CN4CCC3CC4)O2)nc1` (stereo partly drawn) [Example 217] here?
**A.** 1000 to 100000 nM

**Q.** For `COCc1cc(NC2=NC[C@@]3(CN4CCC3CC4)O2)ncn1` [Example 218, (R)—N-(6-(methoxymethyl)pyrimidin-4-yl)-4H-1′-azaspiro[oxazole-5,3′-bicyclo[2.2.2]octan]-2-amine], which EC50 (FLIPR α7 (EC50, nM)) is on record?
**A.** 285 nM

**Q.** What about the EC50 [1] of the same molecule?
**A.** 100 to 1000 nM
